Values after ≈ are worked out from the molar mass of the structure shown.
| Structure (SMILES) | solubility (20 °C) [µM] | solubility (25 °C) [µM] | logP |
| --- | --- | --- | --- |
| CCOP(=S)(OCC)Oc1ccc(S(C)(=O)=O)cc1 | 2300 (≈ 746 µg/mL) |  |  |
| COP(=S)(OC)Oc1cc(Cl)c(Br)cc1Cl | 0.82 (≈ 0.3 µg/mL) |  |  |
| CCOP(=S)(OCC)SCS(=O)CC (stereo not given) | 28900 (≈ 8000 µg/mL) |  |  |
| CCOP(=S)(OCC)SCS(=O)C(C)(C)C (stereo not given) | 3610 (≈ 1100 µg/mL) |  |  |
| CCOP(=O)(OCC)Oc1ccc([N+](=O)[O-])cc1 | 8720 (≈ 2400 µg/mL) |  |  |
| CCOP(=S)(OCC)SCCS(=O)(=O)CC | 2880 (≈ 883 µg/mL) |  |  |
| CCOP(=S)(OCC)SCCSCC | 59.4 (≈ 16.3 µg/mL) |  |  |
| CNC(=O)ON=CC(C)(C)SC |  | 31700 (≈ 6030 µg/mL) |  |
| CCOP(=S)(OCC)SCS(=O)(=O)CC | 2950 (≈ 861 µg/mL) |  | 1.99 |

Source: the OPERA property sets (Mansouri et al. 2018)
